Assay results published in patent US6521623B1, “N,N'-disubstituted benzimidazolone derivatives with affinity at the serotonin and dopamine receptors” (Boehringer Ingelheim Pharma KG, priority 2000, dated 2003).

Experiments:
[1] = target: T1, 5-HT2A (Rattus norvegicus, UniProt P14842); test: 5-HT2A Radioligand Receptor Binding Assay ([3H]-Ketanserin, cerebral frontal cortex membranes); conditions: 0.5 nM [3H]-Ketanserin
T1 construct: Cerebral frontal cortex was homogenized in 10 volumes of ice cold 0.32 M sucrose; from tissue; host or cells: rat cerebral frontal cortex membranes
T1 sequence (P14842 whole entry): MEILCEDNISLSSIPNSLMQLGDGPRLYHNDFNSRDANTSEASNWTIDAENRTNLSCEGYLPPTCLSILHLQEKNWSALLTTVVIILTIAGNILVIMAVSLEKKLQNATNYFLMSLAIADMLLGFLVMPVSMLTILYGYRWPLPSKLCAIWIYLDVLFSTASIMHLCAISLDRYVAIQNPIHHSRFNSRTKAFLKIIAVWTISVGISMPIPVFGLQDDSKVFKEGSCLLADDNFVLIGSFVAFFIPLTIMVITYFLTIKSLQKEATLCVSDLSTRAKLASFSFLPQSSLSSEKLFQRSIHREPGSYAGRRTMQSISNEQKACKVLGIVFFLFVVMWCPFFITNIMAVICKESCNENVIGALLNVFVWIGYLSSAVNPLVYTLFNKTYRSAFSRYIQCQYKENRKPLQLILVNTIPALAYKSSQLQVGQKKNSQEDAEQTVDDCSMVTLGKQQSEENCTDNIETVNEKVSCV
Procedure: 5-HT2A Radioligand Receptor Binding Assay
Rats (male Sprague-Dawley, 200-250 g) were used. Cerebral frontal cortex was homogenized in 10 volumes of ice cold 0.32 M sucrose in 5 mM Tris-HCl ([…]) buffer. After centrifugation of the homogenate (1,000×g for 10 minutes) the supernatant was then recentrifuged at 48,000×g for 15 minutes. The resulting pellet was gently homogenized in an equal volume of 50 mM Tris-HCl buffer (pH 7.4) and incubated at 37° C. for 10 minutes. Membranes were then collected by centrifugation as above described and finally resuspended in 10 volumes of 50 mM Tris-HCl buffer (pH 7.4).
For displacement experiments membranes (980 μl) were diluted in 50 mM Tris-HCl buffer (pH 7.4) to a final concentration of 1:100 (w/v); the tissue suspension was then incubated at 37° C. for 10 minutes in a final volume of 1 ml in the presence of 0.5 nM [^3H]-Ketanserin. Non-specific binding was determined by incubating similar samples with unlabelled methysergide (100 μM). After incubation, samples prepared in a 24 wells cell culture cluster (Costar) were rapidly filtered by Inotech Cell Harvester (IH 201 filters). The filters were washed three times with 2 ml ice-cold Tris-HCl buffer and placed in polyethylene vials, then 4 ml of Filter Count scintillation cocktail (Packard) were added. The radioactivity present was counted by liquid scintillation spectrometry.
The affinity values (IC50) for the compounds were obtained by a nonlinear least squares regression analysis on the basis of a one binding site model.

[2] = target: 5-HT2A (Mus musculus, UniProt P35363); test: 5-HT2 Functional Assay (PI Turnover) in cerebral cortex miniprisms; assay type: biochemical; conditions: 10 μM compound, inhibition of PI turnover accumulation induced by 100 μM 5-HT
Chain of 5-HT2A (Mus musculus, UniProt P35363) (P35363 whole entry, looked up): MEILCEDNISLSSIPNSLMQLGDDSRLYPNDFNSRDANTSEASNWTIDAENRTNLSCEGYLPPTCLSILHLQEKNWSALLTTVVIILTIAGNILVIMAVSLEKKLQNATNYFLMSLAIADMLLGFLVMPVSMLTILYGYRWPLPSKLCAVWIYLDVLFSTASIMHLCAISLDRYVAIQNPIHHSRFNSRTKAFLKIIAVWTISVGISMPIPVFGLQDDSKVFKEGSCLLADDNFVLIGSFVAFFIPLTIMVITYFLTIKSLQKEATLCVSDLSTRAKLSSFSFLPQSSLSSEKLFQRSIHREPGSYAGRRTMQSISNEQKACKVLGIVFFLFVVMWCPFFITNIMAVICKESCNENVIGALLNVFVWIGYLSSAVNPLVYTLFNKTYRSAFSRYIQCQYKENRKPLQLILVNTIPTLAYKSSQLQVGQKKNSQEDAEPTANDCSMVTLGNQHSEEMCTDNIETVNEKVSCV
Procedure: 5-H T2 Functional Assay (PI Turnover)
Cross-chopped miniprisms (350×350 μm) were prepared from mouse whole cerebral cortices and incubated for 60 minutes at 37° C. in Krebs-Henseleit buffer containing 2 g/l glucose.
Cerebral cortex miniprisms were distributed in vials and incubated for 30 minutes with approximately 170 nM [^3H]-myoinositol (10-20 Ci/mmol) and […] lithium chloride. Samples were divided in different groups in triplicate: control, 100 μM 5-HT, 10 and 30 μM flibanserin+100 μM 5-HT, as standards, and 10 μM of the different compound under investigation+100 μM 5-HT. When 5-HT was added the incubation continued for 45 minutes. Compounds under investigation and flibanserin were added 10 minutes before dispensing 5-HT. Incubation was terminated by the addition of 940 μl chloroform-methanol (1:2 v/v). Further aliquots of chloroform (310 μl) and water (310 μl) were added and labeled inositol phosphates (1 Ps) were extracted from the aqueous phase by ion exchange chromatography using Dowex resin in the formate form. After addition of 10 ml of PicoFluor 40 scintillation cocktail (Packard), the radioactivity present in an aliquot (400 μl) of the aqueous extract was counted by liquid scintillation spectrometry.

[3] = target: T2, 5-HT1A (Homo sapiens, UniProt P08908); test: 5-HT1 Functional Assay (cAMP) in CHO/5-HT1A cells; assay type: cell-based; design: expressed in transfected cells; host or cells: CHO/5-HT1A cells
T2 sequence (P08908 1-422): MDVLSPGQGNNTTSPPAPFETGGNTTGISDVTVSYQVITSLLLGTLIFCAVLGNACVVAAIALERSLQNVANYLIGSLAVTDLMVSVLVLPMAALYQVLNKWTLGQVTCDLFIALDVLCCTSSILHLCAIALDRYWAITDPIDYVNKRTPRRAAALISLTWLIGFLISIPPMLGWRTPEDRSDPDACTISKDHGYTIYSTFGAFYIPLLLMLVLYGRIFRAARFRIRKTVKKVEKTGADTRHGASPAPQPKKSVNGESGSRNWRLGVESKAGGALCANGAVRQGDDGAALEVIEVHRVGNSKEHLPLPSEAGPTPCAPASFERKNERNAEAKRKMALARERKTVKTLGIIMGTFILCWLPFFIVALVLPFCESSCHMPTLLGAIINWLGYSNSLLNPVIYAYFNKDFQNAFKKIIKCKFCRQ
Procedure: 5-HT1 Functional Assay (cAMP)
CHO/5-HT1A cells were random seeded at a density of about 200,000/well in 24 well plates the day prior to the experiment. On the day of the experiment, cells were pretreated for 15 minutes at 37° C. with 500 μM isobutylmethylxantine (IBMX) dissolved in culture medium without serum. Wells were then divided in different groups in duplicate as follows: control, 10 μM FSK, 10 μM FSK+1 μM 5-HT as positive standard and 10 μM FSK+10 μM of the different compound under evaluation. Sample solutions were added and incubated for additional 15 minutes at 37° C. After incubation, the medium was aspirated and the reaction stopped by adding 200 μl of lysis buffer. Plates were shaken for 5 minutes, then the lysate was removed and samples were stored at 4° C. until the day of the assay. For the cAMP evaluation, samples were properly diluted and the cAMP content was measured by an enzyme immunoassay system.

[4] = target: T2, 5-HT1A; test: 5HT1A Radioligand Receptor Binding Assay ([3H]-8-OH-DPAT, CHO cell membranes); design: expressed in transfected cells; host or cells: CHO cells; conditions: CHO membranes, human 5-HT1A
Outline: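 CHO-cell membranes expressing human 5-HT1A incubated with [3H]-8-OH-DPAT (0.6-0.7 nM) for 60 minutes at 27° C, filtered and scintillation counted; non-specific binding defined with 10^−5 M 5-HT. Compounds tested singly at 10^−7 M as % of control specific binding; IC50 from one-site nonlinear regression.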

**Q.** What does the source list for `CCNC(=O)OCCn1c(=O)n(CCN2CCN(c3cccc(C)c3C)CC2)c2ccccc21` [Compound 215]?
**A.** IC50 [1]: 3.2 nM; 5-HT2A PI Turnover % inhibition [2]: 83%; inhibition at 10 µM [3]: 83%; IC50 ([4]; [3H]-8-OH-DPAT, read-out: 5-HT1A Receptor Binding IC50): 0.85 nM; inhibition at 0.1 µM ([4]; compound 10^−7 M, singlicate, [3H]-8-OH-DPAT 0.6-0.7 nM): 98%
